From US20250051359A1, “MACROCYCLIC 2-AMINO-BUT-3-ENAMIDES AS INHIBITORS OF MCL-1” (JANSSEN PHARMACEUTICA NV, priority 2021, published 2025) come the findings set out here.

For test [1], the system named is MOLP-8 human multiple myeloma cell line. The test is described as follows: Caspase-Glo 3/7 apoptosis induction assay in MOLP-8 cells. The following applies: caspase-3/7 activity, 2 hours at 37° C., averaged over all runs on all batches, read-out: MOLP8 AC50. Type of test: cell-based. From the text: MCL-1 is a regulator of apoptosis and is highly over-expressed in tumor cells that escape cell death. The assay evaluates the cellular potency of small-molecule compounds targeting regulators of the apoptosis pathway, primarily MCL-1, Bfl-1, Bcl-2, and other proteins of the Bcl-2 family. Protein-protein inhibitors disrupting the interaction of anti-apoptotic regulators with BH3-domain proteins initiate apoptosis.
The Caspase-Glo® 3/7 Assay is a luminescent assay that measures caspase-3 and −7 activities in purified enzyme preparations or cultures of adherent or suspension cells. The assay provides a proluminescent caspase-3/7 substrate, which contains the tetrapeptide sequence DEVD. This substrate is cleaved to release aminoluciferin, a substrate of luciferase used in the production of light. Addition of the single Caspase-Glo® 3/7 Reagent in an “add-mix-measure” format results in cell lysis, followed by caspase cleavage of the substrate and generation of a “glow-type” luminescent signal.
This assay uses the MOLP-8 human multiple myeloma cell line, which is sensitive to MCL-1 inhibition.
Cell cultures were maintained between 0.2 and 2.0×10^6 cells/mL. The cells were harvested by collection in 50 mL conical tubes. The cells were then pelleted at 500 g for 5 mins before removing supernatant and resuspension in fresh pre-warmed culture medium. The cells were counted and diluted as needed.
The assay reagent was prepared by transferring the buffer solution to the substrate vial and mixing. The solution may be stored for up to 1 week at 4° C. with negligible loss of signal.
Compounds were delivered in assay-ready plates (Proxiplate) and stored at −20° C.
Assays always include 1 reference compound plate containing reference compounds. The plates were spotted with 40 nL of compounds (0.5% DMSO final in cells; serial dilution; 30 μM highest conc. 1/3 dilution, 10 doses, duplicates). The compounds were used at room temperature and 4 μL of pre-warmed media was added to all wells except column 2 and 23. The negative control was prepared by adding 1% DMSO in media. The positive control was prepared by adding the appropriate positive control compound in final concentration of 60 μM in media. The plate was prepared by adding 4 μL negative control to column 23, 4 μL positive control to column 2 and 4 μL cell suspension to all wells in the plate. The plate with cells was then incubated at 37° C. for 2 hours. The assay signal reagent is the Caspase-Glo solution described above, and 8 μL was added to all wells. The plates were then sealed and measured after 30 minutes.
The activity of a test compound was calculated as percent change in apoptosis induction as follows: • LC=median of the Low Control values • =Central Reference in Screener • =DMSO • =[…] • HC=Median of the High Control values • =Scale Reference in Screener • =30 μM of positive control • =100% apoptosis induction
% Effect (AC50)=100−((sample−LC)/(HC−LC))*100
% Control=(sample/HC)*100
% Control min=((sample−LC)/(HC−LC))*100

Test [2] has as its target Myeloid Cell Leukemia 1 (Mcl-1) (Homo sapiens, UniProt Q07820). The test is described as follows: Terbium labeled Mcl-1 HTRF binding assay, displacement of Cy5-labeled BIM BH3 peptide. Particulars: 25 pM Tb-Mcl-1, 8 nM Cy5 Bim peptide, 60 min at room temperature, read-out: Tb-MCL1 Ki. On the procedure: Terbium labeled Myeloid Cell Leukemia 1(Mcl-1) homogeneous time-resolved fluorescence (HTRF) binding assay utilizing the BIM BH3 peptide (H2N—(C/Cy5Mal) WIAQELRRIGDEFN-OH) as the binding partner for Mcl-1.
This assay evaluated inhibition of the BH3 domain: Mcl-1 interaction by measuring the displacement of Cy5-labeled BIM BH3 peptide (H2N—(C/Cy5Mal) WIAQELRRIGDEFN-OH) in the HTRF assay format.
The following assay and stock buffers were prepared for use in the assay: (a) Stock buffer: 10 mM Tris-HCl, pH=7.5+150 mM NaCl, filtered, sterilized, and stored at 4° C.; and (b) 1× assay buffer, where the following ingredients were added fresh to stock buffer: 2 mM dithiothreitol (DTT), 0.0025% Tween-20, 0.1 mg/mL bovine serum albumin (BSA). The 1×Tb-Mcl-1+Cy5 Bim peptide solution was prepared by diluting the protein stock solution using the 1× assay buffer (b) to 25 pM Tb-Mel-1 and 8 nM Cy5 Bim peptide.
Using the Acoustic ECHO, 100 nL of 100× test compound(s) were dispensed into individual wells of a white 384-well Perkin Elmer Proxiplate, for a final compound concentration of 1× and final DMSO concentration of 1%. Inhibitor control and neutral control (NC, 100 nL of 100% DMSO) were stamped into columns 23 and 24 of assay plate, respectively. Into each well of the plate was then dispensed 10 μL of the 1×Tb-Mcl-1+Cy5 Bim peptide solution. The plate was centrifuged with a cover plate at 1000 rpm for 1 minute, then incubated for 60 minutes at room temperature with plates covered.
The TR-FRET signal was read on an BMG PHERAStar FSX MicroPlate Reader at room temperature using the HTRF optic module (HTRF: excitation: 337 nm, light source: laser, emission A: 665 nm, emission B: 620 nm, integration start: 60 μs, integration time: 400 μs).
The BMG PHERAStar FSX MicroPlate Reader was used to measure fluorescence intensity at two emission wavelengths—665 nm and 620 nm—and report relative fluorescence units (RFU) for both emissions, as well as a ratio of the emissions (665 nm/620 nm)*10,000. The RFU values were normalized to percent inhibition as follows:
% inhibition(((NC−IC)−(compound−IC))(NC−IC))*100
where IC (inhibitor control, low signal)=mean signal of 1×Tb-MCl-1+Cy5 Bim peptide+inhibitor control or 100% inhibition of Mcl-1; NC (neutral control, high signal)=mean signal 1×Tb-MCl-1+Cy5 Bim peptide with DMSO only or 0% inhibition An 11-point dose response curve was generated to determine IC50 values (using GenData) based on the following equation:
where Y=% inhibition in the presence of X inhibitor concentration; Top=100% inhibition derived from the IC (mean signal of Mcl-1+inhibitor control); Bottom=0% inhibition derived from the NC (mean signal of Mcl-1+DMSO); Hillslope=Hill coefficient; and IC50=concentration of compound with 50% inhibition in relation to top/neutral control (NC).
Representative compounds of the present invention were tested according to the procedure as described above, with results as listed in the Table below (n.d. means not determined).
Background: Time-resolved FRET reads energy transfer from a long-lived donor to a nearby acceptor.

SMILES strings stand for the structures. pKi: −log10 of the molar value.

Sequence of Myeloid Cell Leukemia 1 (Mcl-1) (Q07820 whole entry, the tested form may be a part): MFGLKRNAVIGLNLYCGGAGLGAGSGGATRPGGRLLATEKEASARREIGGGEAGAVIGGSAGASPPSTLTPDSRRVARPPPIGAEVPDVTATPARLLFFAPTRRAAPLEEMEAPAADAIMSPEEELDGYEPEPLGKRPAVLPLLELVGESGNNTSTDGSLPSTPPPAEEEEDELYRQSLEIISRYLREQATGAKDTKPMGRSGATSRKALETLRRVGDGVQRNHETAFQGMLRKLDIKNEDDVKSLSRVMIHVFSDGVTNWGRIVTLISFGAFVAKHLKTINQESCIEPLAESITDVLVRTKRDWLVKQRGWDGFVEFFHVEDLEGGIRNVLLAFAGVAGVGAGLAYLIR

By AC50 is commonly meant the concentration at which the activity in the assay is half-maximal. `C[C@@H]1[C@@H](C)C/C=C/[C@@H](C(=O)N2CCOCC2)N2CCC[C@H]2CN2C[C@@]3(CCCc4cc(Cl)ccc43)COc3ccc(cc32)C(=O)NS1(=O)=O` [Compound 6]: in test [1], the AC50 amounted to 1950 nM.

As a reminder, the pKi is −log10 of the Ki, conventionally taken in molar units. As for `C[C@@H]1[C@@H](C)C/C=C/[C@@H](C(=O)N2CCOCC2)N2CC[C@H]2CN2C[C@@]3(CCCc4cc(Cl)ccc43)COc3ccc(cc32)C(=O)NS1(=O)=O` [Compound 9], the pKi in test [2] is 9.71. The AC50 in test [1] was 660 nM. Regarding `C[C@@H]1[C@@H](C)C/C=C/[C@H](C(=O)N(C)CC2CCOCC2)N2CCC[C@H]2CN2C[C@@]3(CCCc4cc(Cl)ccc43)COc3ccc(cc32)C(=O)NS1(=O)=O` [Compound 3], the pKi in test [2] was 10.57. Also, the AC50 in test [1] came to 81 nM.

Regarding `C[C@@H]1[C@@H](C)C/C=C/[C@H](C(=O)N2CCOCC2)N2CC[C@H]2CN2C[C@@]3(CCCc4cc(Cl)ccc43)COc3ccc(cc32)C(=O)NS1(=O)=O` [Compound 8], the pKi in test [2] was 9.15. For the same compound, in test [1], the AC50 worked out at 340 nM. For `COCCN(CCOC)C(=O)[C@H]1/C=C/C[C@H](C)[C@@H](C)S(=O)(=O)NC(=O)c2ccc3c(c2)N(C[C@@H]2CCCN21)C[C@@]1(CCCc2cc(Cl)ccc21)CO3` [Compound 1], the pKi in test [2] is 10.52. Also, in test [1], the AC50 was 56 nM. For `C[C@@H]1[C@@H](C)C/C=C/[C@H](C(=O)N2CCOCC2)N2CCC[C@H]2CN2C[C@@]3(CCCc4cc(Cl)ccc43)COc3ccc(cc32)C(=O)NS1(=O)=O` [Compound 7] the same measures were 10.05 and 360 nM.

Turning to `CC1CC=CC(C(=O)N(C)CCN2CCOCC2)N2CCCC2CN2CC3(CCCc4cc(Cl)ccc43)COc3ccc(cc32)C(=O)NS(=O)(=O)C1C` (centres unmarked) [Compound 5], in test [2], the pKi was 10.62. Further, in test [1], the AC50 was found to be 180 nM.

Turning to `C[C@@H]1[C@@H](C)C/C=C/[C@H](C(=O)N(C)C)N2CCC[C@H]2CN2C[C@@]3(CCCc4cc(Cl)ccc43)COc3ccc(cc32)C(=O)NS1(=O)=O` [Compound 4], in test [2], the pKi is 9.85. The AC50 in test [1] worked out at 180 nM. For `C[C@@H]1[C@@H](C)C/C=C/[C@H](C(=O)N(C)CCC2CCOCC2)N2CCC[C@H]2CN2C[C@@]3(CCCc4cc(Cl)ccc43)COc3ccc(cc32)C(=O)NS1(=O)=O` [Compound 2] the same measures were 10.24 and 130 nM.
